The values that follow come from patent US5179089A, “Isoquinoline compounds, compositions and use” (Chinoin Gyogyszer es Vegyeszeti Termekek Gyara Rt., priority 1990, dated 1993).

Test [1] has as its system active local anaphylactic reaction. Description: Effect influencing the active local anaphylactic reaction on rat. It counts as in vivo, rat (female OFA). As to conditions: for Percentage of inhibition of the active local anaphylactic reaction: oral dose of 50 mg/kg, 30th minute after induction. Here is the method: 1) The effect influencing the active local anaphylactic reaction was measured according to the method of M. Koltay [Arch. Allergy App. Immun. 71, 181 (1983)].
Female OFA rats weighing 160 to 180 g each were sensitized by bovine serum albumin (BSA) adsorbed to 50 μg of Al(OH)3 gel together with the simultaneous administration of Bordatella pertussis vaccine.
The anaphylactic reaction was elicited by injecting 100 μg of BSA into the right hind paw plant in the 14th day.
The measurements were carried out before and 30 minutes after eliciting the reaction. The animals were orally treated with the compound to be tested 1 hour before the injection of BSA. The results were expressed as percentage inhibition compared to the control group (average %±S.E.M.).

The test system of test [2] is dextran-induced rat paw edema. Description: Dextran-induced rat paw edema test. The following applies: for Percentage of inhibition: 50 mg/kg (p.o.). Format: in vivo. Here is the method: 3) Dextran-induced rat paw edema test The method of S. Gourvaisier and R. Ducrot [Arch. Int. Pharmacodyn. Ther. 102, 33 (1955)] was employed. The method described for the carrageenin edema test was followed, except that the measurements were carried out 30, 60, 90, 120 and 180 minutes after induction of the inflammation.

Test [3] deals with carrageenin-induced rat paw edema. Description: Carrageenin-induced rat paw edema test. It counts as in vivo, rat (female CFY). As to conditions: for change in vivo at 50 mg/kg: Rattus norvegicus, po, 50 mg/kg (p.o.), read-out: Percentage of the protective effect; for Protective effect %: oral dose 20 mg/kg (Naproxen). Here is the method:
Proc. Soc. Exp. Med. 111, 544 (1962)]. Female CFY rats weighing 100 to 120 g each were used after starvation for 24 hours. The inflammation was induced by injecting 0.1 ml of 1% carrageenin solution into the right hind paw plant. The severity of inflammation was determined by using an Ugo-Basile type plethysmometer. The measurement was carried out before and 1.5, 3 and 4.5 hours after induction of the inflammation. The animals were orally treated with the substance to be tested 1 hour before administration of carrageenin. The effect was expressed as percentage inhibition related to the control group.

In test [4] the test system is histamine-induced constriction of isolated tracheal smooth muscle of guinea pig. Briefly: Inhibition of the histamine-induced constriction of isolated tracheal smooth muscle of guinea pig. As to conditions: Cavia porcellus, 0.25 h, isolated guinea pig trachea, read-out: Inhibition of the histamine-induced constriction of isolated tracheal smooth muscle of guinea pig pd'2 (converted). Here is the method: I Study on the Effects Against Spasmogenic Mediators [modified method of J. C. […] The investigation on isolated organs were carried out as follows. OHF Lt/R9 guinea pigs of both sexes weighing 300 to 400 g each were anaesthetized by pentobarbital. Their trachea was removed and sectioned in the opposite side to the site of smooth muscle in longitudinal direction. Subsequently, a strip-like preparation was obtained by […] cutting. […] A rest load of 0.5 g was used. Several washings were carried out during the incubation period of 30 minutes. The change in the tension of the tracheal smooth muscle was followed by using an isometric Grass FT-03 type tensiometer sensor device. A washing was made following the cumulative dose series of the given mediator (e.g. histamine). After reaching the base line, by 15 minutes after administration of the given concentration of the inhibitory (antiasthmatic) substance to be tested, the next cumulative dose series of the mediator was administered. In the case of an inhibitory action, the strength of effect, following the second dose series of the mediator, was […] in comparison to that of the first (control) series. For characterization of strength of the competitive antagonistic effect the pA2 value was determined according to the method of […] A pd'2 value was calculated [J. M. Van Rossum: Arch. Int.

Test [5] relates to acetylcholine-induced constriction of the isolated tracheal smooth muscle of the guinea pig. Briefly: Inhibition of the acetylcholine-induced constriction of isolated tracheal smooth muscle of guinea pig. As to conditions: Cavia porcellus, 0.25 h, isolated guinea pig trachea, read-out: pd'2 value against acetylcholine (converted). Here is the method:
(§1) I Study on the Effects Against Spasmogenic Mediators
[modified method of J. C. Castillo et al.: Exp. Ther. 90, 104 (1947)]
(§2) The investigation on isolated organs were carried out as follows.
(§3) OHF Lt/R9 guinea pigs of both sexes weighing 300 to 400 g each were anaesthetized by pentobarbital. Their trachea was removed and sectioned in the opposite side to the site of smooth muscle in longitudinal direction. Subsequently, a strip-like preparation was obtained by serrately cutting.
The organ was suspended in an organ bath containing 35 ml of Krebs solution at 37° C. bubbled through by carbogen gas (consisting of 95% of oxygen and 5% of carbon dioxide).
(§4) A rest load of 0.5 g was used. Several washings were carried out during the incubation period of 30 minutes.
(§5) The change in the tension of the tracheal smooth muscle was followed by using an isometric Grass FT-03 type tensiometer sensor device. A washing was made following the cumulative dose series of the given mediator (e.g. histamine). After reaching the base line, by 15 minutes after administration of the given concentration of the inhibitory (antiasthmatic) substance to be tested, the next cumulative dose series of the mediator was administered. In the case of an inhibitory action, the strength of effect, following the second dose series of the mediator, was […] in comparison to that of the first (control) series.
For characterization of strength of the competitive antagonistic effect the pA2 value was determined according to the method of Schield [Br. J. Pharmacol. 4, 277 (1949)]. A pd'2 value was calculated [J. M. Van Rossum: Arch. Int. Pharmacodyn 143, 317 (1963)] to characterize the noncompatitive antagonistic effectivity. The higher the pA2 or pd'2 value, respectively were, the higher was the antagonistic effect.

In test [6] the test system is serotonin-induced constriction of the isolated tracheal smooth muscle of the guinea pig. Briefly: Inhibition of the serotonin-induced constriction of isolated tracheal smooth muscle of guinea pig. As to conditions: isolated guinea pig trachea, 15 min. Here is the method:
as §1
[modified method of J. C.
as §2, §3, §4, §5
A pd'2 value was calculated [J. M. Van Rossum: Arch. Int. […] The higher the pA2 or pd'2 value, respectively were, the higher was the antagonistic effect.

The structures appear in SMILES notation. Structures can show the parent of a compound that is named as a salt. Where two headings read alike, the source gives them in different places.

Regarding `NC1=NN(c2cccc(C(F)(F)F)c2)CC1` [BW 755C, reference compound], the “Protective effect % in the 30th minute” value in test [1] (oral dose 50 mg/kg (BW 755C)) is on record as 52.9%. Also, the Protective effect % turned out to be 15.4% in test [2] (oral dose 50 mg/kg (BW-755C), 30 minutes); 12.3% in test [2] (oral dose 50 mg/kg (BW-755C), 60 minutes); 17.2% in test [2] (oral dose 50 mg/kg (BW-755C), 90 minutes); 7.9% in test [2] (oral dose 50 mg/kg (BW-755C), 120 minutes); 11.3% in test [2] (oral dose 50 mg/kg (BW-755C), 180 minutes).
Take `C[C@@H]1C[C@H]2[C@@H]3CCC4=CC(=O)C=C[C@]4(C)[C@@]3(F)[C@@H](O)C[C@]2(C)[C@@]1(O)C(=O)CO` [Dexamethasone, dexamethasone, reference compound]: the “Protective effect % in the 30th minute” value in test [1] (oral dose 0.5 mg/kg (Dexamethasone)) is reported as 45.5%. Further, the Protective effect % in test [2] (oral dose 0.5 mg/kg (dexamethasone), 30 minutes) came out at 42.7%; in test [2] (oral dose 0.5 mg/kg (dexamethasone), 60 minutes), 36.8%; in test [2] (oral dose 0.5 mg/kg (dexamethasone), 90 minutes) it was 51.1%; in test [2] (oral dose 0.5 mg/kg (dexamethasone), 120 minutes), 52.1%; in test [2] (oral dose 0.5 mg/kg (dexamethasone), 180 minutes) it was 45.5%.
Regarding `COc1cc2c(cc1OC)C(=C(C#N)SCC(O)CN1CCCC1)NCC2` (centres unmarked) [Example 12, 2-(6,7-dimethoxy-1,2,3,4-tetrahydro-1-isoquinolinylidene)-2-[2-hydroxy-3-(1-pyrrolidinyl)propyl]mercaptoacetonitrile hydrochloride hemihydrate], the Percentage of inhibition is recorded as -20.2% in test [2] (30 minutes); -15.6% in test [2] (60 minutes); -14.7% in test [2] (90 minutes); -14.6% in test [2] (120 minutes); -12.6% in test [2] (180 minutes). The change in vivo at 50 mg/kg is -27.2% in test [3] (1.5 hours), -18.9% in test [3] (3 hours) and -17.6% in test [3] (4.5 hours). In addition, the IC50 in test [4] is 15.5 µM.
As for `N#CC(SCC(O)CN1CCCCC1)=C1NCCc2ccccc21` (centres unmarked) [Example 14, 2-(1,2,3,4-tetrahydro-1-isoquinolinylidene)-2-[2-hydroxy-3-(1-piperidinyl)propyl]mercaptoacetonitrile], the “Percentage of inhibition of the active local anaphylactic reaction” value in test [1] is reported as -44.1%. Besides, the results for the change in vivo at 50 mg/kg in test [3] (1.5 hours), in test [3] (3 hours) and in test [3] (4.5 hours) were -20.9%, -20% and -20%, respectively. Also, the IC50 in test [4] was 26.3 µM.
On to `COc1cc2c(cc1OC)C(=C(C#N)SCC(O)CN1CCOCC1)NCC2` (centres unmarked) [Example 17, 2-(6,7-dimethoxy-1,2,3,4-tetrahydro-1-isoquinolinylidene)-2-[2-hydroxy-3-(4-morpholinyl)propyl]mercaptoacetonitrile hydrochloride], for which, in test [1], the “Percentage of inhibition of the active local anaphylactic reaction” value was -53.4%. The Percentage of inhibition came to 27.5% in test [2] (30 minutes); 32.5% in test [2] (60 minutes); 32.1% in test [2] (90 minutes); 32.4% in test [2] (120 minutes); 20.3% in test [2] (180 minutes). Moreover, the change in vivo at 50 mg/kg is -4.2% in test [3] (1.5 hours), 0% in test [3] (3 hours) and 0% in test [3] (4.5 hours). Also, the IC50 in test [4] is 1.82 µM.
Turning to `COc1cc2c(cc1OC)C(=C(C#N)SCC(O)CN1CCCCCC1)NCC2` (centres unmarked) [Example 19, 2-(6,7-dimethoxy-1,2,3,4-tetrahydro-1-isoquinolinylidene)-2-(3-hexamethylenimino-2-hydroxypropyl)mercaptoacetonitrile], the Percentage of inhibition was -28.2% in test [2] (30 minutes); -26.6% in test [2] (60 minutes); -27.3% in test [2] (90 minutes); -27.8% in test [2] (120 minutes); -22.8% in test [2] (180 minutes). Further, the change in vivo at 50 mg/kg in test [3] (1.5 hours) is -29%; in test [3] (3 hours), -24.2%; in test [3] (4.5 hours) it was -19.5%. The IC50 in test [4] was 97.7 µM.
Take `COc1cc2c(cc1OC)C(=C(C#N)SCC(CN1CCOCC1)OC(=O)c1ccccc1)NCC2` (centres unmarked) [Example 25, 2-(6,7-dimethoxy-1,2,3,4-tetrahydro-1-isoquinolinylidene)-2-[2-benzoyloxy-3-(4-morpholinyl)propyl]mercaptoacetonitrile]: the IC50 is 15.5 µM in test [5] and 0.417 µM in test [4]. Besides, the change in vivo at 50 mg/kg in test [3] (1.5 hours) is -26.6%; in test [3] (3 hours) it was -17.7%; in test [3] (4.5 hours), -16%.
Regarding `CCOc1cc2c(cc1OCC)C(=C(C#N)SCC(CN1CCOCC1)OC(=O)c1ccccc1)NCC2` (centres unmarked) [Example 26, 2-(6,7-diethoxy-1,2,3,4-tetrahydro-1-isoquinolinylidene)-2-[2-benzoyloxy-3-(4-morpholinyl)-propyl]mercaptoacetonitrile hydrochloride], the IC50 in test [5] was 15.5 µM; in test [4], 8.71 µM.
For `COc1ccc2cc([C@H](C)C(=O)O)ccc2c1` [Naproxen, reference compound], the “Protective effect % in the 30th minute” value in test [1] (oral dose 30 mg/kg (Naproxen)) worked out at 2.2%. The Protective effect % in test [2] (oral dose 20 mg/kg (Naproxen), 30 minutes) came out at 16.9%; in test [2] (oral dose 20 mg/kg (Naproxen), 60 minutes) it was 20.1%; in test [2] (oral dose 20 mg/kg (Naproxen), 90 minutes) it was 18.9%; in test [2] (oral dose 20 mg/kg (Naproxen), 120 minutes), 23.3%; in test [2] (oral dose 20 mg/kg (Naproxen), 180 minutes), 21.6%; in test [3] (1.5 hours) it was 33.2%. In addition, the Protective effect % worked out at 44.3% in test [3] (3 hours) and 40.4% in test [3] (4.5 hours).
Regarding `Cn1c(=O)c2[nH]cnc2n(C)c1=O` [theophylline, reference compound], the “pd'2 value against serotonin” value was found to be 6.16 in test [6] and 6.49 in test [6] (listed as Theophylline). In addition, the IC50 in test [5] was 0.372 µM; in test [4], 1.58 µM.
